Data published in US6737383B1, “Herbicidal oxadiazolidines” (priority 1999, dated 2004).

Legend:
bedstraw = assay: Test B pre/postemergence bedstraw; format: in vivo, Galium aparine
Method in brief: (§1)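 Herbicidal effect was estimated by eye on a ten-point control scale after plants spent twelve to sixteen days in a greenhouse following soil or foliar treatment. Foliar sprays targeted plants at one to four leaves; all doses were formulated in a non-phytotoxic solvent with surfactant.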

blackgrass = assay: Test B pre/postemergence blackgrass; format: in vivo, Alopecurus myosuroides
Method in brief: as §1

surinam grass = assay: Test B pre/postemergence surinam grass; format: in vivo, Brachiaria decumbens
Method in brief: as §1

corn = assay: Test B pre/postemergence corn; format: in vivo, Zea mays
Method in brief: as §1

crabgrass = assay: Test B pre/postemergence crabgrass; format: in vivo, Digitaria sanguinalis
Method in brief: as §1

giant foxtail = assay: Test B pre/postemergence giant foxtail; format: in vivo, Setaria faberii; settings: for Plant response rating, Giant foxtail: scale of 0 to 10 where 0 is no effect and 10 is complete control
Method in brief: as §1

morningglory = assay: Test B pre/postemergence morningglory; format: in vivo, Ipomoea hederacea; settings: for Plant response rating, Morningglory: scale of 0 to 10 where 0 is no effect and 10 is complete control
Method in brief: as §1

pigweed = assay: Test B pre/postemergence pigweed; format: in vivo, Amaranthus retroflexus; settings: for Plant response rating, Redroot pigweed: scale of 0 to 10 where 0 is no effect and 10 is complete control
Method in brief: as §1

soybean = assay: Test B pre/postemergence soybean; format: in vivo, Glycine max; settings: for Plant response rating, Soybean: scale of 0 to 10 where 0 is no effect and 10 is complete control
Method in brief: as §1

velvetleaf = assay: Test B pre/postemergence velvetleaf; format: in vivo, Abutilon theophrasti; settings: for Plant response rating, Velvetleaf: scale of 0 to 10 where 0 is no effect and 10 is complete control
Method in brief: as §1

wheat = assay: Test B pre/postemergence wheat; format: in vivo, Triticum aestivum; settings: for Plant response rating, Wheat: scale of 0 to 10 where 0 is no effect and 10 is complete control
Method in brief: as §1

wild oat = assay: Test B pre/postemergence wild oat; format: in vivo, Avena fatua; settings: for Plant response rating, Wild oats: scale of 0 to 10 where 0 is no effect and 10 is complete control
Method in brief: as §1

purple nutsedge = assay: Test B pre/postemergence purple nutsedge; format: in vivo, Cyperus rotundus; settings: for Plant response rating, Nutsedge: scale of 0 to 10 where 0 is no effect and 10 is complete control
Method in brief: as §1

rice = assay: Test B flood test rice; format: in vivo, Oryza sativa
Method in brief: (§2)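 Each value is a visual injury score relative to controls, with 10 meaning complete control and 0 no effect. Evaluation took place twelve to sixteen days after the 2-leaf-stage plants were treated and kept in the greenhouse.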

smallflower flatsedge = assay: Test B flood test smallflower flatsedge; format: in vivo, Cyperus difformis
Method in brief: as §2

duck salad = assay: Test B flood test duck salad; format: in vivo, Heteranthera limosa
Method in brief: as §2

[1] = Postemergence, Rate 250 g/ha, scale 0 to 10
[2] = Preemergence, Rate 250 g/ha, scale 0 to 10, 0 is no effect, 10 is complete control
[3] = Preemergence, Rate 500 g/ha, scale 0 to 10, 0 is no effect, 10 is complete control
[4] = Rate 62 g/ha, Postemergence, scale 0 to 10 (0 no effect, 10 complete control)
[5] = Rate 125 g/ha, Postemergence, scale 0 to 10, 0 is no effect, 10 is complete control
[6] = Postemergence, Rate 500 g/ha, scale of 0 to 10 where 0 is no effect and 10 is complete control
[7] = Preemergence, Rate 62 g/ha, scale of 0 to 10 where 0 is no effect and 10 is complete control
[8] = Preemergence, Rate 125 g/ha, scale of 0 to 10 where 0 is no effect and 10 is complete control
[9] = Rate 62 g/ha, flood test species, Pre-emergence, visual evaluation after twelve to sixteen days
[10] = Rate 125 g/ha, under heading Pre-emergence, flood test species, visual evaluation after twelve to sixteen days
[11] = Rate 250 g/ha, Pre-emergence (flood test species), scale 0 to 10, 0 is no effect, 10 is complete control
[12] = Rate 500 g/ha, Pre-emergence, flood test species, scale 0 to 10 (0 no effect, 10 complete control)

CC(C)N(C(=O)n1oc(=O)n(C(C)C(=O)N(C)C)c1=O)c1ccccc1 (stereo not shown) [Compound 479]
Bedstraw plant response rating (bedstraw; [1]): 0
Bedstraw plant response rating (bedstraw; [2]): 0
Bedstraw plant response rating (bedstraw; [3]): 0
Bedstraw plant response rating (bedstraw; [4]): 0
Bedstraw plant response rating (bedstraw; [5]): 0
Blackgrass plant response rating (blackgrass; [1]): 4
Blackgrass plant response rating (blackgrass; [6]): 7
Plant response rating, Blackgrass (blackgrass; [7]): 2
Plant response rating, Blackgrass (blackgrass; [8]): 6
Blackgrass plant response rating (blackgrass; [2]): 8
Blackgrass plant response rating (blackgrass; [3]): 9
Blackgrass plant response rating (blackgrass; [4]): 0
Blackgrass plant response rating (blackgrass; [5]): 0
B. signalgrass plant response rating (surinam grass; Postemergence, Rate 250 g/ha, scale 0 to 10, 0 no effect, 10 complete control): 3
B. signalgrass plant response rating (surinam grass; [6]): 7
Plant response rating, B. signalgrass (surinam grass; [7]): 0
Plant response rating, B. signalgrass (surinam grass; [8]): 5
B. signalgrass plant response rating (surinam grass; [2]): 6
B. signalgrass plant response rating (surinam grass; [3]): 9
B. signalgrass plant response rating (surinam grass; [4]): 0
B. signalgrass plant response rating (surinam grass; [5]): 2
Corn plant response rating (corn; [1]): 0
Corn plant response rating (corn; [6]): 4
Plant response rating, Corn (corn; [7]): 0
Plant response rating, Corn (corn; [8]): 0
Corn plant response rating (corn; [2]): 0
Corn plant response rating (corn; [3]): 3
Corn plant response rating (corn; [4]): 0
Corn plant response rating (corn; [5]): 0
Crabgrass plant response rating (crabgrass; [1]): 6
Crabgrass plant response rating (crabgrass; [6]): 9
Plant response rating, Crabgrass (crabgrass; [8]): 8
Crabgrass plant response rating (crabgrass; [2]): 9
Crabgrass plant response rating (crabgrass; [3]): 10
Crabgrass plant response rating (crabgrass; [4]): 2
Crabgrass plant response rating (crabgrass; [5]): 3
Giant foxtail plant response rating (giant foxtail; [1]): 6
Plant response rating, Giant foxtail (giant foxtail; Preemergence, Rate 62 g/ha): 7
Plant response rating, Giant foxtail (giant foxtail; Preemergence, Rate 125 g/ha): 9
Giant foxtail plant response rating (giant foxtail; [2]): 10
Giant foxtail plant response rating (giant foxtail; [3]): 10
Giant foxtail plant response rating (giant foxtail; [4]): 0
Giant foxtail plant response rating (giant foxtail; [5]): 3
Morningglory plant response rating (morningglory; [1]): 10
Plant response rating, Morningglory (morningglory; Preemergence, Rate 62 g/ha): 0
Plant response rating, Morningglory (morningglory; Preemergence, Rate 125 g/ha): 0
Morningglory plant response rating (morningglory; [2]): 4
Morningglory plant response rating (morningglory; [3]): 4
Morningglory plant response rating (morningglory; [4]): 7
Morningglory plant response rating (morningglory; [5]): 10
Redroot pigweed plant response rating (pigweed; [1]): 2
Plant response rating, Redroot pigweed (pigweed; Preemergence, Rate 62 g/ha): 0
Plant response rating, Redroot pigweed (pigweed; Preemergence, Rate 125 g/ha): 3
Redroot pigweed plant response rating (pigweed; [2]): 6
Redroot pigweed plant response rating (pigweed; [3]): 6
Redroot pigweed plant response rating (pigweed; [4]): 0
Redroot pigweed plant response rating (pigweed; [5]): 2
Soybean plant response rating (soybean; [1]): 3
Plant response rating, Soybean (soybean; Preemergence, Rate 62 g/ha): 0
Plant response rating, Soybean (soybean; Preemergence, Rate 125 g/ha): 0
Soybean plant response rating (soybean; [2]): 0
Soybean plant response rating (soybean; [3]): 0
Soybean plant response rating (soybean; [4]): 1
Soybean plant response rating (soybean; [5]): 1
Velvetleaf plant response rating (velvetleaf; [1]): 0
Plant response rating, Velvetleaf (velvetleaf; Preemergence, Rate 62 g/ha): 0
Plant response rating, Velvetleaf (velvetleaf; Preemergence, Rate 125 g/ha): 0
Velvetleaf plant response rating (velvetleaf; [2]): 1
Velvetleaf plant response rating (velvetleaf; [3]): 5
Velvetleaf plant response rating (velvetleaf; [4]): 0
Velvetleaf plant response rating (velvetleaf; [5]): 0
Wheat plant response rating (wheat; [1]): 0
Plant response rating, Wheat (wheat; Preemergence, Rate 62 g/ha): 0
Plant response rating, Wheat (wheat; Preemergence, Rate 125 g/ha): 0
Wheat plant response rating (wheat; [2]): 3
Wheat plant response rating (wheat; [3]): 7
Wheat plant response rating (wheat; [4]): 0
Wheat plant response rating (wheat; [5]): 0
Wild oats plant response rating (wild oat; [1]): 0
Plant response rating, Wild oats (wild oat; Preemergence, Rate 62 g/ha): 0
Plant response rating, Wild oats (wild oat; Preemergence, Rate 125 g/ha): 4
Wild oats plant response rating (wild oat; [2]): 5
Wild oats plant response rating (wild oat; [3]): 7
Wild oats plant response rating (wild oat; [4]): 0
Wild oats plant response rating (wild oat; [5]): 0
Nutsedge plant response rating (purple nutsedge; [1]): 0
Plant response rating, Nutsedge (purple nutsedge; Preemergence, Rate 62 g/ha): 0
Plant response rating, Nutsedge (purple nutsedge; Preemergence, Rate 125 g/ha): 0
Nutsedge plant response rating (purple nutsedge; [2]): 0
Nutsedge plant response rating (purple nutsedge; [4]): 0
Nutsedge plant response rating (purple nutsedge; [5]): 0
Plant response rating, Rice (0 to 10 scale, 0 is no effect, 10 is complete control) (rice; [9]): 0
Rice plant response rating (0 to 10 scale, 0 is no effect, 10 is complete control) (rice; [10]): 0
Rice plant response rating (rice; [11]): 0
Rice plant response rating (rice; [12]): 0
Plant response rating, S. Flatsedge (0 to 10 scale, 0 is no effect, 10 is complete control) (smallflower flatsedge; [9]): 0
S. Flatsedge plant response rating (0 to 10 scale, 0 is no effect, 10 is complete control) (smallflower flatsedge; [10]): 0
S. Flatsedge plant response rating (smallflower flatsedge; [11]): 0
S. Flatsedge plant response rating (smallflower flatsedge; [12]): 0
Plant response rating, Ducksalad (0 to 10 scale, 0 is no effect, 10 is complete control) (duck salad; [9]): 0
Ducksalad plant response rating (0 to 10 scale, 0 is no effect, 10 is complete control) (duck salad; [10]): 0
Ducksalad plant response rating (duck salad; [11]): 0
Ducksalad plant response rating (duck salad; [12]): 0
